From patent US7252936B2 (priority 1994, dated 2007) come the findings set out here.

Each structure is given as a SMILES string. Some results are limits rather than exact numbers.

In one test the test system is M. tuberculosis. Description: microbe, parasite or virus in culture. The settings on record: Mycobacterium tuberculosis, read-out: MIC (Minimal Inhibitory Concentration). The test is classed as cell-based.
The test system of test [1] is M. tuberculosis strains with Aspartic acid 516 changed into Valine or Tyrosine. Format: cell-based.

With `CO[C@H]1/C=C/O[C@@]2(C)Oc3c(C)c(O)c4c(O)c(c(/C=N/N5CCN(C)CC5)c(O)c4c3C2=O)NC(=O)/C(C)=C\C=C\[C@H](C)[C@H](O)[C@@H](C)[C@@H](O)[C@@H](C)[C@H](OC(C)=O)[C@@H]1C` [rifampicin], the MIC with M. tuberculosis is over 2 µg/mL.

Consider `CO[C@H]1/C=C/O[C@@]2(C)Oc3c(C)c(O)c4c(c3C2=O)C2=NC3(CCN(CC(C)C)CC3)NC2=C(NC(=O)/C(C)=C\C=C\[C@H](C)[C@H](O)[C@@H](C)[C@@H](O)[C@@H](C)[C@H](OC(C)=O)[C@@H]1C)C4=O` [rifabutin], for which, in test [1], the “Resistance or sensitivity of strains with the mutation” value is on record as “sensitivity to rifabutin is maintained”.
